Structures can show the parent of a compound that is named as a salt.
system: MEF2 transcriptional activity; experiment: MEF2 transcriptional activity screen (Luciferase-MEF2 reporter in human neural progenitor cells); type: cell-based; conditions: Homo sapiens, read-out: qAC50 [M]

Row | SMILES | EC50 [M]
1 | O=C(NOCCO)c1cc(CN2OCCCC2=O)c(F)c(F)c1Nc1ccc(I)cc1F [CH-4987655] | 1.07e-07

same assay, conditions: Homo sapiens; concentration for half-maximal activity derived from the hill equation model; MEF2 luciferase reporter; read-out: qAC50

Row | SMILES | EC50 [M]
2 | COC(=O)C1=C(C)NC(C)=C(C(=O)OC(C)C)C1c1ccccc1[N+](=O)[O-] (centres unmarked) | 1.53e-06
3 | CSCCOC(=O)C1=C(C)NC(C)=C(C(=O)OCCSC)C1c1ccccc1[N+](=O)[O-] | 2.07e-06
4 | CC(=O)C(=Cc1ccccc1)C(C)=O | 1.57e-05
5 | Cn1cc(-c2ccc(S(=O)(=O)n3ccc(/C=C/C(=O)Nc4ccccc4N)c3)cc2)cn1 [4SC-202] | 1.75e-05
6 | CC(CO)(CO)NCc1ccc2c3c(cccc13)-c1ccccc1-2 [773U82] | 1.89e-05
7 | O=c1cc(-c2ccc(O)cc2)oc2cc(O)cc(O)c12 [APIGENIN] | 4.69e-06
8 | CCCNC(=O)c1ccc2c(c1)N(C(C)CN1CCCC1)c1ccccc1S2 (centres unmarked) [Apadoline] | 1.97e-05
9 | CC[C@@H]1C(=O)N(C)c2cnc(Nc3ccc(C(=O)NC4CCN(C)CC4)cc3OC)nc2N1C1CCCC1 [BI-2536] | 2.09e-07
10 | COc1ccc(C(=O)/C(Br)=C/C(=O)O)cc1 [Bromebrate sodium] | > 1.99e-05
11 | N/C(=N\Nc1ccccc1)c1ccccc1 [CBS-1114] | > 1.99e-05
12 | CN(C)CCCNC(=O)/C(=C/CCCCC(=O)NO)COc1cccc2ccccc12 [CG-200745] | 2.14e-07
13 | O=C(NO)c1cnc(N2C[C@@H]3[C@H](C2)[C@H]3NCc2ccc3cc(F)ccc3n2)nc1 [CHR-3996] | 2.8e-07
14 | O=C(NOCC1CC1)c1ccc(F)c(F)c1Nc1ccc(I)cc1Cl [CI-1040] | 8.54e-07
15 | O=c1oc(CCN2CCN(c3ccccc3)CC2)c(-c2ccc(Cl)cc2)o1 [CLODOXOPONE] | > 1.99e-05
16 | C#Cc1cccc(Nc2ncnc3cc(OC)c(OCCCCCCC(=O)NO)cc23)c1 [CUDC-101] | 1.05e-06
17 | CCCc1cc(O)c2c(c1)OC(C)(C)[C@@H]1CCC(C)=C[C@@H]21 [DELTA-9-TETRA-[…]] | 2.29e-06
18 | CCCCCCC(C)(C)c1cc(O)c2c(c1)OC(C)(C)[C@H]1CC=C(CO)C[C@H]21 [Dexanabinol] | 7.97e-06
19 | O=C(NO)c1ccc(C2=Nc3ccccc3Oc3ccccc32)cc1 [EVP-0334] | 3.03e-06

Row | SMILES | EC50 [M]
20 | CCN(CC)Cc1ccc2cc(COC(=O)Nc3ccc(C(=O)NO)cc3)ccc2c1 [Givinostat hydrochloride] | 9.72e-07
21 | O=C(NO)c1cnc(N2CCN(S(=O)(=O)c3ccc4ccccc4c3)CC2)nc1 [JNJ-16241199] | 1.59e-07
22 | C/C(=N\NC(=O)c1ccc(C(=O)O)s1)c1csc(-c2ccc(Cl)c(Cl)c2)c1O [ONO-7746] | 2.57e-06
23 | Cc1sc2c(c1C)C(c1ccc(Cl)cc1)=N[C@@H](CC(=O)Nc1ccc(O)cc1)c1nnc(C)n1-2 [OTX-015] | 4.51e-07
24 | CCOC(=O)OC(C)OC(=O)CNC(=O)[C@@H](CSSC[C@@H](N)CCSC)Cc1ccccc1 (some centres unmarked) [PL-37] | 1.29e-05
25 | Cc1[nH]c2ccccc2c1CCNCc1ccc(/C=C/C(=O)NO)cc1 [Panobinostat lactate] | 1.22e-08
26 | CC(C)OC(=O)CCC/C=C\C[C@H]1C(=O)C=C[C@@H]1/C=C/[C@@H](O)CCc1ccccc1 [Posaraprost] | > 4.97e-06
27 | Cn1nccc1Nc1nccc(-c2ccn([C@H](CO)c3ccc(Cl)c(F)c3)c(=O)c2)n1 [RG-7842] | 1.23e-05
28 | COc1cc(F)c(F)c(Nc2ccc(I)cc2F)c1NS(=O)(=O)C1(C[C@H](O)CO)CC1 [Refametinib] | 2.73e-06
29 | C=C(C)[C@]12C[C@@H](C)[C@@]34O[C@](Cc5ccccc5)(O[C@@H]1[C@@H]3C=C(COC(=O)Cc1ccc(O)c(OC)c1)C[C@]1(O)C(=O)C(C)=C[C@@H]41)O2 [Resiniferatoxin] | 5.11e-09
30 | CN(C)CCNC(=O)c1cccc2cc3ccccc3nc12 [SN-22995] | > 1.99e-05
31 | COc1ccc2nc(-c3cccc(F)c3)cc(O)c2c1OP(=O)(OCc1ccccc1)OCc1ccccc1 [TRX-818] | 1.01e-05
32 | CC(=O)Nc1ccc(C(=O)Nc2ccccc2N)cc1 [Tacedinaline] | 1.31e-05
33 | CC(C)c1ccc(CN2CCN(C(c3ccc(F)cc3)c3ccc(F)cc3)CC2)c(=O)c(NCCO)c1 [U 92032] | > 1.99e-05
34 | CC(C)(CO)c1cc2cc(NC(=O)C3(c4ccc5c(c4)OC(F)(F)O5)CC3)c(F)cc2n1C[C@@H](O)CO [VX-661] | > 1.99e-05
35 | CCN(CC)CCNc1ccc(CNC)c2sc3ccccc3c(=O)c12 [WIN 33156] | > 1.99e-05
36 | CN(C)Cc1c(C(=O)NCCOc2ccc(C(=O)NO)cc2)oc2ccccc12 [abexinostat] | 2.2e-06
37 | O=C(/C=C/c1cccc(S(=O)(=O)Nc2ccccc2)c1)NO [belinostat] | 6.7e-07

same assay, conditions: concentration for half-maximal activity derived from the hill equation model; MEF2 luciferase reporter; read-out: qAC50

Row | SMILES | EC50 [M]
38 | COc1ccc2[nH]cc(CCN(C(C)C)C(C)C)c2c1 [5-MeO-DIPT] | > 1.99e-05
39 | CC1(C)C(=O)Nc2cc3[nH]c(-c4ccncc4)nc3cc21 [ADIBENDAN] | > 1.99e-05
40 | COC(=O)C1=C(C)NC(C)=C(C(=O)OCC(C)=O)C1c1ccccc1[N+](=O)[O-] (centres unmarked) [ARANIDIPINE] | 3.11e-06
41 | Cc1nn(C)cc1CN1CCC(c2ccc(C(=O)Nc3ccccc3N)cc2)CC1 [AZD-9468] | > 1.99e-05
42 | Clc1ccc2oc(C(c3ccccc3Cl)n3ccnc3)cc2c1 (centres unmarked) [BECLICONAZOLE] | 5.1e-06
43 | COC(=O)Nc1nc2cc(C3(O)c4ccccc4C(=O)N3c3cc(Cl)ccc3C)ccc2[nH]1 (centres unmarked) [BMS-908662] | > 1.99e-05
44 | CC(C)Nc1cc(-c2c[nH]c(C(=O)N[C@H](CO)c3cccc(Cl)c3)c2)c(Cl)cn1 [BVD-523] | 9.87e-07
45 | CCCCCN=C(N)Nc1nc(-c2cnc(C)[nH]2)cs1 [CP 66948] | > 1.99e-05
46 | CN(C)CCOc1ccc2[nH]c(C(=O)NCC#Cc3ccc(C(=O)NO)cc3)cc2c1 [CRA-026440] | 1.29e-05
47 | CN1Cc2ccccc2[C@@H]2c3cccc4[nH]cc(c34)C[C@H]21 [CY-208-243] | 1.96e-05
48 | COc1ccc2[nH]c(C(=O)c3ccccc3)cc2c1 [D-64131] | 3.74e-06
49 | COC(=O)Nc1nc2cc(Sc3ccc(NC(=O)[C@H](C)N)cc3)ccc2[nH]1 [DENIBULIN] | 1.51e-06
50 | CN(C)CCCn1c(=O)c2ccccc2c2ccccc21 [FANTRIDONE] | 5.38e-06
51 | O=C(Nc1nc2cccc(-c3ccc(CN4CCS(=O)(=O)CC4)cc3)n2n1)C1CC1 [Filgotinib] | > 1.99e-05
52 | CCN1CCC(Oc2c(C#N)ncc3[nH]c4ncccc4c23)CC1 [GDC-0425] | 1.26e-06
53 | O=C(Cc1ccc(-c2ccc(N3CCOCC3)cc2)cn1)NCc1cccc(F)c1 [KX-02] | 5.8e-07
54 | O=C(/C=C/c1ccc(CN(CCO)CCc2c[nH]c3ccccc23)cc1)NO [LAQ 824] | 5.3e-07
55 | C[C@H](Nc1cc(-c2cnn(C)c2)cc(Nc2cnccn2)n1)c1ccc(F)cc1 [NS-018] | 1.12e-05
56 | CCCCc1ccc2[nH]c(NC(=O)OC)nc2c1 [PARBENDAZOLE] | 1.75e-06
57 | CCC(C)SSc1ncc[nH]1 (centres unmarked) [PX-12] | 9.95e-07
58 | CCOC(=O)/C(=C/c1ncc([N+](=O)[O-])n1C)C(C)=O [Propenidazole] | 3.11e-06
59 | COc1ccc2c(c1)-c1nn(CCCN(C)C)c3ccc([N+](=O)[O-])c(c13)N2 [Pyrazoloacridine] | > 1.99e-05
60 | CN(C)C(C(=O)Nc1ccc2c(=O)[nH]ccc2c1)c1ccsc1 (centres unmarked) [Verosudil] | 7.54e-06
61 | Cn1cnc2c(F)c(Nc3ccc(Br)cc3F)c(C(=O)NOCCO)cc21 [binimetinib] | > 1.99e-05

same assay, conditions: read-out: qAC50

Row | SMILES | EC50 [M]
62 | CC[C@]1(O)C[C@@H]2CN(CCc3c([nH]c4ccccc34)[C@@](C(=O)OC)(c3cc4c(cc3OC)N(C)[C@H]3[C@@](O)(C(=O)OC)[C@H](OC(C)=O)[C@]5(CC)C=CCN6CC[C@]43[C@@H]65)C2)C1 [Vinblastine sulfate] | 6.73e-08

Reference: patent publication US20250161243A1, “MEF2 TRANSCRIPTIONAL ACTIVATORS TO TREAT NEUROLOGIC CONDITIONS” (The Scripps Research Institute, priority 2022, published 2025)
